pIC50: −log10 of the molar value.
target: T1, Glucose-6-phosphate 1-dehydrogenase (Leuconostoc mesenteroides, UniProt P11411); test: Leuconostoc G6PDH inhibition potency, SAR follow-up, counter-screen for TbHK1 inhibitor project, biochemical, analogue series, IC50 (AID 2579)
T1 sequence (P11411 whole entry): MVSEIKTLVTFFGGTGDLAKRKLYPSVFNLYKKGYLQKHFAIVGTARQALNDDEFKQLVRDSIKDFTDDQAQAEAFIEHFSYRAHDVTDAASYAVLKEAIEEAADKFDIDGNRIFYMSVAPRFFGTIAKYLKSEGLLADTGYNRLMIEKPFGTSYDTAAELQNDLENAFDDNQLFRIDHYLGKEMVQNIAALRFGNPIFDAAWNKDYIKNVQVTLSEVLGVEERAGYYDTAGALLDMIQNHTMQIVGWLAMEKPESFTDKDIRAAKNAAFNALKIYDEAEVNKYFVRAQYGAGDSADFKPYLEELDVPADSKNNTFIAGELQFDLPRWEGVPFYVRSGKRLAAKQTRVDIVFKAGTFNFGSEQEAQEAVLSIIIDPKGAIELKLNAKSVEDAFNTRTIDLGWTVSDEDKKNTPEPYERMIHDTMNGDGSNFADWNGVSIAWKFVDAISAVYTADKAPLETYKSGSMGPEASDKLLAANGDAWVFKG

SMILES | pIC50
O=c1c2cc(Br)ccc2sn1-c1ccccc1 [KSC-6-175] | < 4.60
CN(C)S(=O)(=O)c1cccc(-n2sc3ccccc3c2=O)c1 [3-(3-keto-1,2-benzothiazol-2-yl)-N,N-dimethyl-benzenesulfonamide] | < 4.60
O=C(O)c1ccc(Cl)cc1NC(=O)C1CCOCC1 [KUC106462N] | < 4.60
Cc1ccc(C(=O)Nc2cc(Cl)ccc2C(=O)O)c(C)c1 [4-chloro-2-[[(2,4-dimethylphenyl)-oxomethyl]amino]benzoic acid] | < 4.60
COc1ccc(C(=O)Nc2ccccc2-c2nn[nH]n2)cc1 [4-methoxy-N-[2-(2H-1,2,3,4-tetrazol-5-yl)phenyl]benzamide] | < 4.60
COc1ccc(NC(=O)Nc2ccccc2C(=O)O)cc1 [KUC105625N] | < 4.60
O=C(Nc1cc(Cl)ccc1C(=O)O)c1ccc2c(c1)CCC2 [KUC106492N] | < 4.60
O=c1c2c(Br)cccc2sn1-c1ccccc1 [4-bromanyl-2-phenyl-1,2-benzothiazol-3-one] | < 4.60
CN(Cc1ccccc1)C(=O)Cn1sc2ccccc2c1=O [N-benzyl-N-methyl-2-(3-oxo-1,2-benzothiazol-2-yl)acetamide] | < 4.60
COc1ccc(C(=O)Nc2ccccc2C(=O)O)cc1 [KUC106458N] | < 4.60
COC(=O)c1ccc(Cl)cc1NC(=O)c1ccccc1OC [4-chloro-2-[[(2-methoxyphenyl)-oxomethyl]amino]benzoic acid methyl ester] | < 4.60
O=C(Cn1sc2ccccc2c1=O)Nc1ccc(I)cc1 [N-(4-iodophenyl)-2-(3-oxo-1,2-benzothiazol-2-yl)acetamide] | < 4.60
O=C(c1ccccc1)n1sc2ccccc2c1=O [KUC105344N] | < 4.60
CCCCCCC(=O)Nc1cc(Cl)ccc1C(=O)O [4-chloro-2-(1-oxoheptylamino)benzoic acid] | < 4.60
O=C1CCN(C(=O)Nc2cc(Cl)ccc2C(=O)O)CC1 [4-chloro-2-[[oxo-(4-oxo-1-piperidinyl)methyl]amino]benzoic acid] | < 4.60
O=c1c2ccc([N+](=O)[O-])cc2sn1-c1ccccc1 [6-nitro-2-phenyl-1,2-benzothiazol-3-one] | < 4.60
O=C(Nc1cc(Cl)ccc1C(=O)O)c1ccccc1 [2-benzamido-4-chlorobenzoic acid] | < 4.60
COC(=O)c1ccc(Cl)cc1NC(=O)c1ccc(OC)cc1 [KUC105792N] | < 4.60
O=c1c2ccccc2sn1-c1cccc(F)c1 [KUC103653N] | < 4.60
O=C(Nc1ccccc1)c1cc(F)ccc1S | < 4.60
COc1cccc(NC(=O)Cn2sc3ccccc3c2=O)c1 [KUC104220N] | < 4.60
O=C(Nc1cc(Cl)ccc1C(=O)O)c1ccc(Cc2ccccc2)cc1 [4-chloranyl-2-[[4-(phenylmethyl)phenyl]carbonylamino]benzoic acid] | < 4.60
N#Cc1ccc2c(=O)n(-c3ccccc3)sc2c1 [3-oxidanylidene-2-phenyl-1,2-benzothiazole-6-carbonitrile] | < 4.60
O=C(NCc1ccccc1)n1sc2ccccc2c1=O [N-benzyl-3-oxo-1,2-benzothiazole-2-carboxamide] | < 4.60
Cc1ccc(C(=O)Nc2cc(Cl)ccc2C(=O)O)cc1 [4-chloro-2-[(4-methylbenzoyl)amino]benzoic acid] | < 4.60
COc1ccc(C(=O)Nc2cc(C)ccc2C(=O)O)cc1 [2-[(4-methoxyphenyl)carbonylamino]-4-methyl-benzoic acid] | < 4.60

SMILES | pIC50
CCOC(=O)c1ccncc1NC(=O)c1ccc(OC)cc1 [3-[[(4-methoxyphenyl)-oxomethyl]amino]-4-pyridinecarboxylic acid ethyl ester] | < 4.60
COc1ccc(C(=O)Nc2cc(C(F)(F)F)ccc2C(=O)O)cc1 [2-[(4-methoxybenzoyl)amino]-4-(trifluoromethyl)benzoic acid] | < 4.60
CCc1ccc(C(=O)Nc2cc(Cl)ccc2C(=O)OC)cc1 [4-chloro-2-[[(4-ethylphenyl)-oxomethyl]amino]benzoic acid methyl ester] | < 4.60
COc1ccc(NC(=O)c2ccc(Cl)cc2C(=O)O)cc1 [KUC105925N] | < 4.60
COc1ccccc1-n1sc2ccccc2c1=O [KUC103854N] | < 4.60
COc1ccc(C(=O)NC(CC(=O)O)c2ccc(Cl)cc2)cc1 (stereo unspecified) [3-(4-chlorophenyl)-3-[(4-methoxyphenyl)carbonylamino]propanoic acid] | < 4.60
Cn1c2ccccc2c(=O)n1-c1ccccc1 [1-methyl-2-phenyl-3-indazolone] | < 4.60
O=c1c2ccccc2sn1-c1ccc(Cl)cc1Cl [KUC103882N] | < 4.60
O=c1c2cc(F)ccc2sn1-c1ccccc1 [5-fluoranyl-2-phenyl-1,2-benzothiazol-3-one] | < 4.60
CC(C(=O)Nc1ccccc1)n1sc2ccccc2c1=O (stereo unspecified) [2-(3-keto-1,2-benzothiazol-2-yl)-N-phenyl-propionamide (9)] | < 4.60
Cc1cccc(C(=O)Nc2cc(Cl)ccc2C(=O)O)c1 [4-chloro-2-[[(3-methylphenyl)-oxomethyl]amino]benzoic acid] | < 4.60
COc1ccc2c(=O)n(-c3ccccc3)sc2c1 [KUC105410N] | < 4.60
CC(=O)Nc1ccc2c(=O)n(-c3ccccc3)sc2c1 [KUC104218N] | < 4.60
CCOC(=O)Cn1sc2ccccc2c1=O [KUC104555N] | < 4.60
O=c1c2cc(F)ccc2sn1-c1ccccc1Cl | < 4.60
O=c1s[nH]c2ccccc12 [KUC103850N] | < 4.60
COc1ccc(C(=O)Nc2ccccc2C(=O)O)cc1Cl | < 4.60
O=C(Nc1cc(Cl)ccc1C(=O)O)c1ccc(C2CC2)cc1 [KUC106496N] | < 4.60
O=C1c2cccc(Br)c2SCN1c1ccccc1 [8-bromanyl-3-phenyl-2H-1,3-benzothiazin-4-one] | < 4.60
O=C(Nc1cc(Cl)ccc1C(=O)O)c1ccncc1 [4-chloro-2-[[oxo(pyridin-4-yl)methyl]amino]benzoic acid] | < 4.60
O=C(Cn1sc2ccccc2c1=O)Nc1ccccc1F [KSC-09-149A] | < 4.60
CCc1ccc(C(=O)Nc2cc(Cl)ccc2C(=O)O)cc1 [KSC-6-279] | < 4.60
O=C(Cn1sc2ccccc2c1=O)NCc1ccccc1 | < 4.60
O=c1c2cc(F)ccc2sn1-c1ccc(Cl)cc1 [2-(4-chlorophenyl)-5-fluoranyl-1,2-benzothiazol-3-one] | < 4.60
Cc1ccc(-n2sc3cc(F)ccc3c2=O)c(C)c1 [2-(2,4-dimethylphenyl)-6-fluoranyl-1,2-benzothiazol-3-one] | < 4.60
O=C(Nc1cc(Cl)ccc1C(=O)O)c1ccc(-c2ccccc2)cc1 [4-chloranyl-2-[(4-phenylphenyl)carbonylamino]benzoic acid] | < 4.60

SMILES | pIC50
O=C(Nc1cc(Cl)ccc1C(=O)O)c1ccc(-c2cccs2)cc1 [KUC106464N] | < 4.60
COc1ccccc1NC(=O)Cn1sc2ccccc2c1=O [N-(2-methoxyphenyl)-2-(3-oxidanylidene-1,2-benzothiazol-2-yl)ethanamide] | < 4.60
Cc1ccccc1-n1sc2cc(F)ccc2c1=O [6-fluoranyl-2-(2-methylphenyl)-1,2-benzothiazol-3-one] | < 4.60
COc1ccc(NC(=O)Cn2sc3ccccc3c2=O)cc1 [KSC-4-269] | < 4.60
O=c1c2ccccc2sn1-c1ccccc1F | < 4.60
CC(=O)Nc1cc(Cl)ccc1C(=O)O [KUC105931N] | < 4.60
N#Cc1ccc2sn(-c3ccccc3)c(=O)c2c1 [KUC104224N] | < 4.60
O=c1c2cc([N+](=O)[O-])ccc2sn1-c1ccccc1 [KUC103868N] | < 4.60
COc1ccc(C(=O)Nc2cc(Cl)ccc2-c2nnn[nH]2)cc1 [KUC105991N] | < 4.60
CC(C)(C)c1ccc(C(=O)Nc2cc(Cl)ccc2C(=O)O)cc1 [KSC-18-037] | < 4.60
O=C(Nc1cc(Cl)ccc1C(=O)O)c1ccc(C(F)(F)F)cc1 [4-chloranyl-2-[[4-(trifluoromethyl)phenyl]carbonylamino]benzoic acid] | < 4.60
COc1ccc(C(=O)NCC(=O)O)cc1 | < 4.60
O=C(Nc1cc(Cl)ccc1C(=O)O)c1ccc2c(c1)OCO2 [KUC106004N] | < 4.60
COc1ccc(C(=O)Nc2cc(Br)ccc2C(=O)O)cc1 [4-bromo-2-[[(4-methoxyphenyl)-oxomethyl]amino]benzoic acid] | < 4.60
O=c1c2ccccc2sn1-c1ccccc1 [2-phenyl-1,2-benzothiazol-3-one] | < 4.60
COc1ccc2c(c1)CN(c1cc(Cl)ccc1C(=O)O)C2=O [4-chloro-2-(6-methoxy-3-oxo-1H-isoindol-2-yl)benzoic acid] | < 4.60
COc1ccc(C(=O)Nc2cccc(Cl)c2)cc1 | < 4.60
O=C(Nc1cc(Cl)ccc1C(=O)O)c1ccc(OC(F)(F)F)cc1 [KUC105992N] | < 4.60
COc1ccc(CC(=O)Nc2cc(Cl)ccc2C(=O)O)cc1 [KUC105993N] | < 4.60
CC(C)c1cccc(C(=O)Nc2cc(Cl)ccc2C(=O)O)c1 [KUC106459N] | < 4.60
O=C(Cn1sc2ccccc2c1=O)Nc1cccc(Br)c1 [N-(3-bromophenyl)-2-(3-oxo-1,2-benzothiazol-2-yl)acetamide] | < 4.60
O=C(O)c1ccccc1NC(=O)c1ccccc1C(=O)O | < 4.60
CCc1ccc(C(=O)Nc2cc(Br)ccc2C(=O)O)cc1 [4-bromanyl-2-[(4-ethylphenyl)carbonylamino]benzoic acid] | < 4.60
COc1ccc(C(=O)N(C)c2cc(Cl)ccc2C(=O)O)cc1 | < 4.60
